Reference: paper PMC4935942, “Efficient Inhibition of Hepatitis B Virus Infection by a preS1-binding Peptide” (Scientific Reports, 2016)
Like-named read-outs stand apart in the source and are kept apart here. Where no end group is shown, it is not given here.

What was measured:
[1] = system: HBV attachment to PMH; assay: HBV attachment to PMH (immunofluorescent staining of cell-bound HBsAg); type: cell-based, Hepatitis B virus; conditions: 1 μM; immunofluorescence
Method: (§1) For HBV attachment assays, viruses in HepAD38 supernatants were precipitated in 10% polyethylene glycol (PEG) 8000 (Sangon) for 16 hours at 4 °C, centrifuged at 7,000 × g for 1 hour at 4 °C and resuspended in DMEM. Viral titers were determined using a real-time PCR kit (Qiagen, Düsseldorf, Germany) and represented as genome equivalent per milliliter (GE/ml). […] After incubation at 37 °C for 4 hours, cells were washed repeatedly with ice-cold PBS. Viral DNA was prepared from cell lysate with DNeasy Blood Kit (Qiagen) and quantified using real-time PCR with primers 5′-[…] -3′ and 5′-[…] -3′.
(§2) PHH at 14 days post infection and PTH at 12 days post infection were washed 3 times with ice-cold PBS and fixed in 3.7% paraformaldehyde in PBS for 15 min at room temperature. Cells were washed, permeabilized with 0.5% Triton X-100 in PBS, washed again and incubated in 1% BSA in PBST for 30 minutes at room temperature. Cells were then stained with a polyclonal rabbit anti-HBcAg (1:700 dilution, Dako, Inc, Carpinteria, CA) overnight at 4 °C in a humidified chamber. After washing, PHH and PTH were incubated with Alexa Fluor 488 goat anti-rabbit IgG (H+L) and Alexa Fluor 546 goat anti-rabbit IgG (H+L) (1:1000 dilution, Life Technologies, USA) for 1 hour at room temperature in dark, respectively. After 3 washes in dark, cells were stained with DAPI for 10 minutes at room temperature. […]

[2] = system: HBV infection of PHH; assay: HBV infection of primary human hepatocytes; conditions: for IC50: pooled patient sera (genotypes B and C), MOI 400, day 14 post infection, ELISA, printed with 'about'
Method: (§6) Freshly isolated PTH were seeded into collagen-coated 6-well plates (BD Biosciences, San Jose, CA) and maintained in Hepato-Stim Hepatocyte Defined medium (HDM) (BD Biosciences) at 5 × 10^5 cells per well. Twenty-four hours post-seeding, PTH were infected with concentrated viruses prepared from HepAD38 supernatants (genotype D) at a multiplicity of infection (MOI) of 100 GE per cell. […] After incubation at 37 °C overnight, cells were washed 5 times with PBS and cultivated for 12 days. For HBV infection of PHH, freshly prepared PHH were seeded into collagen-coated wells in supplemented WEM at 5 × 10^5 cells per well. […] PTH and PHH culture media were changed every two days, and hepatitis B surface antigen (HBsAg) and e antigen (HBeAg) in collected supernatants were determined using enzyme linked immunosorbent assay (ELISA) kits (Kehua). All infections were repeated at least twice.

[3] = system: HIV-1; conditions: TZM-bl cells; strains B12 and SH1.81, 200 TCID50; 4B10 up to 100 μM; luciferase, 48 h post infection
Method: The infection of two strains of tat-expressing, replication deficient HIV-1, B12 and SH1.81, was tested on TZM-bl cells harboring HIV-1 LTR-luciferase reporter[30]. Envelope proteins of B12 and SH1.81 were derived from HIV-1 B and A/E recombinant subtype, respectively. […] Forty-eight hours post infection, intracellular luciferase activity was measured with a luciferase assay kit (Promega, Madison, WI).

[4] = system: HBV infection of PTH; assay: Intracellular HBcAg expression in HBV-infected PTH (immunofluorescence); type: cell-based, Hepatitis B virus; conditions: day 12 post-infection
Method: (§3) All infections were repeated at least twice.
(§4) PHH at 14 days post infection and PTH at 12 days post infection were washed 3 times with ice-cold PBS and fixed in 3.7% paraformaldehyde in PBS for 15 min at room temperature. Cells were washed, permeabilized with 0.5% Triton X-100 in PBS, washed again and incubated in 1% BSA in PBST for 30 minutes at room temperature. Cells were then stained with a polyclonal rabbit anti-HBcAg (1:700 dilution, Dako, Inc, Carpinteria, CA) overnight at 4 °C in a humidified chamber. After washing, PHH and PTH were incubated with Alexa Fluor 488 goat anti-rabbit IgG (H+L) and Alexa Fluor 546 goat anti-rabbit IgG (H+L) (1:1000 dilution, Life Technologies, USA) for 1 hour at room temperature in dark, respectively. After 3 washes in dark, cells were stained with DAPI for 10 minutes at room temperature. For detection of HBV attached to PMH and HepG2 cells, cells were stained with a mouse monoclonal anti-HBsAg (1:1000 dilution, Dako) followed by Alexa Fluor 488 goat anti-mouse IgG (H+L) (1:1000 dilution, Life Technologies). Cells were examined under a confocal microscope (Leica Biosystems).

[5] = system: HepG2 cells; conditions: 4B10 0.01 μM, 1 μM and 100 μM, or LA-20; 72 h; CCK-8
Method: (§7) To rule out potential cytotoxicity of the peptides, the viability of cells exposed to 4B10 (0.01 μM, 1 μM and 100 μM) or LA-20 for 72 hours was analyzed.
(§8) For PTH, cells were cultured in medium containing 4B10 and LA-20 (0.01 μM, 1 μM or 100 μM) and viability measured using cell counting kit-8 (CCK-8) (Dojindo, Japan).

[6] = system: PHH; conditions: 0.05 nM to 500 μM; 24 h; CellTiter-Glo
Method: PHH and PTH were seeded into collagen-coated 96-well plates at 5 × 10^4 cells per well.

[7] = system: binding of preS1/2-48^myr-FITC to PMH; assay: Inhibition of preS1/2-48^myr-FITC binding to PMH; type: cell-based, mouse (C57BL/6); conditions: 0.5 μM preS1/2-48^myr-FITC, 100 μM peptide (200-fold molar excess), 4 h at 37 °C; confocal microscopy
Method: PMH and HepG2 cells were seeded into 12-well plates at a density of 1 × 10^5 cells per well and cultured in WEM and DMEM without FBS respectively. […] Cell nuclei were stained with DAPI (4′6′-diamidino-2-phenylindole) (Sangon, Shanghai, China) for 10 minutes at room temperature. Cells were examined using a confocal microscope (Leica Biosystems, Germany).

[8] = system: HBV attachment to PMH; assay: HBV attachment to PMH (real-time PCR); type: cell-based, Hepatitis B virus; conditions: 1 × 10^7 GE/well viruses pre-incubated 30 min at 37 °C, 4 h at 37 °C, triplicate, repeated at least three times
Method: as §1

[9] = system: preS1/2-48^myr; assay: preS1/2-48^myr-FITC binding to immobilized N-biotinylated B10 monomer/concatemers; parameters: species or system HBV (genotype D); conditions: N-biotinylated peptide 2 μg/well on streptavidin-coated wells; 1 h at room temperature; fluorescence
Method: (§5) The N-biotinylated B10 monomer or concatemers (Fig. 1A) (2 μg/well) was applied into the streptavidin-coated wells and incubated for 45 minutes at room temperature. Wells were washed with PBST (0.05% Tween 20 in PBS). […] Excess preS1/2-48^myr-FITC peptides were removed with PBST. Fluorescence intensity was then measured using a VICTOR X multilabel reader (Perkin Elmer, Waltham, MA). In virus capture assays, 1 × 10^6 viruses from pooled HBV positive serum (Ruijin Hospital, Shanghai) were applied per well. After incubation at 4 °C for 4 hours, wells were washed and 100 μl of horseradish peroxidase-labeled HBsAg antibody (Kehua, Shanghai, China) was added and incubated for 1 hour at room temperature. The absorbance at 450 nm was measured.

[10] = system: primary mouse hepatocytes (PMH); assay: Flow cytometry binding of FITC-labelled peptides to PMH; conditions: discussion; Fig. 3A
[11] = system: HBV infection of PTH
Method: as §6

[12] = system: HBV particles; assay: HBV virus capture assay; type: binding, Hepatitis B virus; conditions: 1 × 10^6 viruses per well from pooled HBV positive serum; 4 °C for 4 h; HRP-labeled HBsAg antibody, absorbance at 450 nm
Method: as §5

[13] = system: VSV-G pseudotyped lentivirus; type: cell-based
[14] = system: HBV infection of PHH; assay: Intracellular HBcAg expression in HBV-infected PHH (immunofluorescence); type: cell-based, Hepatitis B virus; conditions: day 14 post-infection
Method: as §3, §4

[15] = system: PMH; conditions: 4B10 0.01 μM, 1 μM and 100 μM, or LA-20; 72 h; CCK-8
Method: as §7, §8

[16] = system: HBV attachment to HepG2 cells; assay: HBV attachment to HepG2 cells; type: cell-based, Hepatitis B virus; conditions: real-time PCR and immunofluorescent staining of HBsAg; viruses pre-incubated with 4B10 0.1 nM, 10 nM or 1 μM
Method: as §1, §2

[17] = PTH, 4B10 0.01-100 nM or LA-20 100 nM, ELISA

What does the source list for LRNIRLRNIRLRNIRLRNIR [4B10]?
HBV attachment to PMH (HBsAg staining) [1]: markedly reduced; inhibition of HBV infection (in words) ([2]; PHH, 4B10 0.05-500 nM): Dose-dependent and efficient inhibition of HBV infection; inhibition of HBV infection of primary human hepatocytes ([2]; abstract): low nanomolar concentrations; IC50 ([2]; read-out: IC50 based on HBeAg measurement, PHH): 0.5 to 5 nM; IC50 ([2]; read-out: IC50 based on HBsAg measurement, PHH): 0.05 to 0.5 nM; inhibition of infection by genotype B and C viruses ([2]; viruses from HBV-infected patients): could inhibit the infection of genotype B and C viruses; inhibitory effect on infection of HIV-1 [3]: no inhibitory effect; post-infection HBcAg expression [4]: dose-dependent decrease in post-infection HBcAg expression; cytotoxic effect on HepG2 cells [5]: No notable cytotoxic effect; cytotoxic effect on PHH [6]: No cytotoxicity was observed; inhibition of binding of preS1/2-48^myr-FITC to PMH [7]: completely blocked; reduction of PMH-associated virions ([8]; 0.1 nM): 39%; reduction of PMH-associated virions ([8]; 10 nM): 56%; reduction of PMH-associated virions ([8]; 1 μM): 74%; preS1-binding activity (preS1/2-48^myr-FITC) [9]: showed the highest binding activity; binding to primary hepatocytes [10]: does not bind; inhibition of HBV infection of primary tupaia hepatocytes [11]: low nanomolar concentrations; effect on post-infection HBeAg expression [11, 17]: dose-dependent decrease; effect on post-infection HBsAg expression [11, 17]: dose-dependent decrease; IC50 ([11]; infection of PTH): 0.1 to 1 nM; inhibition of infection by genotype D viruses ([11]; viruses derived from HepAD38 cells): could inhibit the infection of genotype B and C viruses from HBV-infected patients as well as genotype D viruses; HBV-binding activity [12]: showed the highest binding activity; inhibitory effect on infection of VSV-G pseudotyped lentivirus [13]: no inhibitory effect; post-infection HBcAg expression [14]: dose-dependent decrease in post-infection HBcAg expression; cytotoxic effect on PMH [15]: No notable cytotoxic effect; HBV attachment to HepG2 cells [16]: inhibited HBV attachment to HepG2 cells
